{"source": "patent EP3178809A1", "about": "“HYBRID MOLECULE WITH STRUCTURAL AND ACTIVITY ELEMENTS OF RESVERATROL AND DIALLYL SULFIDE” (Albert-Ludwigs-Universität Freiburg, priority 2015, dated 2017)", "key": {"[1]": {"system": "humane Magenkarzinomzellen MKN-45", "experiment": "Apoptosis induction in tumour cells (morphological criteria, duplicate assays)", "assay_type": "cell-based, human", "conditions": "MKN-45, apoptosis", "method": "Nach 3 Stunden bei 37 ° C, 5 % CO2 wurden die Prozentsätze apoptotischer Zellen bestimmt. […] Nach 3 Stunden bei 37 ° C, 5 % CO2 wurden die Prozentsätze apoptotischer Zellen bestimmt.\nDie Daten basieren allesamt auf der quantitativen Bestimmung der Apoptose mittels der klassischen morphologischen Kriterien Kernkondensation, Kernfragmentation und Membrane Blebbing nach definierten Inkubationszeiten bei 37°C.\nDie Ansätze erfolgten bei einer Zelldichte von 125 000 Zellen/ml in 96-Loch-Platten mit einem Reaktionsvolumen von 100 µl. Alle Ansätze wurden als Doppelansätze geführt und pro Messpunkt wurden mindestens 200 Zellen morphologisch bewertet. Eine detaillierte Aufstellung der verwendeten Medien, Inhibitoren, Zellen ist in den Arbeiten Scheit and Bauer, 2015; Bauer und Zarkovic, 2014; Bauer et al., 2014; Bauer, 2015 beschrieben.\nUm zu klären, ob das Hybridmolekül aus Struktur- und Wirkungselementen von Resveratrol und Diallyldisulfid in der Lage ist, Apoptose in Tumorzellen zu induzieren, und dabei zu prüfen, ob sich durch die Kombination der Einzelfunktionen in einem Molekül der Synergieeffekt bündeln ließ, wurden steigende Konzentrationen des Hybridmoleküls zu Magenkarzinomzellen der Linie MKN-45 gegeben. Die als Parallelansätze geführten Ansätze wurden sowohl ohne als auch in Anwesenheit von 2 mM des Singulettsauerstofffängers Histidin inkubiert, um zu prüfen, ob der durch das Hybridmolekül ausgelöste Effekt durch Singulettsauerstoff vermittelt wird. Zum Vergleich wurde das gleiche Experiment mit steigenden Konzentrationen DADS durchgeführt, ebenfalls mit und ohne Histidinzugabe. Nach 3,5 Stunden Inkubation wurde der Prozentsatz apoptotischer Zellen bestimmt."}, "[2]": {"target": "T1, NOX1 von Magenkarzinomzellen (Homo sapiens, UniProt Q9Y5S8)", "T1 construct": "endogenous in cells; host or cells: MKN-45", "T1 sequence (Q9Y5S8 1-564)": "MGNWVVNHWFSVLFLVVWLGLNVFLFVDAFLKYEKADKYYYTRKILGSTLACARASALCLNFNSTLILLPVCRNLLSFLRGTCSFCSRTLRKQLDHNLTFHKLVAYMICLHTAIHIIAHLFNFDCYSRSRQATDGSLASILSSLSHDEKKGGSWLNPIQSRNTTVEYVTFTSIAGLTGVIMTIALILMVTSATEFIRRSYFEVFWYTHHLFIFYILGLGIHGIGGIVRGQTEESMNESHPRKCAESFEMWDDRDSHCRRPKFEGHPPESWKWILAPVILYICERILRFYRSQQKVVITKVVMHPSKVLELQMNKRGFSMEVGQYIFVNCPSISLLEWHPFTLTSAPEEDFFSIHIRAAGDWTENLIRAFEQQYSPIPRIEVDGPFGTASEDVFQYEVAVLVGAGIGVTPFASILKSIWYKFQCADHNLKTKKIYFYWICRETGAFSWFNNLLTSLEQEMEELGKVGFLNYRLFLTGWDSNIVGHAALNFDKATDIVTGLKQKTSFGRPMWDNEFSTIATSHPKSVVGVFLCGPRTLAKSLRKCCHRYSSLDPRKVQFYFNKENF", "T1 sequence (P13498 1-195 partner)": "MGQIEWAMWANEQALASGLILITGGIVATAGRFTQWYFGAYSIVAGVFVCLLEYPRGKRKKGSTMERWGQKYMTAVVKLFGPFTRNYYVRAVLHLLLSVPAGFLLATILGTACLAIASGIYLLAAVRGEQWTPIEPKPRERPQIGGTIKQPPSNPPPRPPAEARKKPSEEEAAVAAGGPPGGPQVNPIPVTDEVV", "experiment": "Stimulation of superoxide anion production (shift of Cu/ZnSOD inhibition curve of 3-AT-reactivated apoptosis signalling)", "assay_type": "cell-based", "conditions": "0.9 µM, MKN-45, 100 mM 3-AT plus Cu/ZnSOD, 5,5 Stunden", "method": "MKN-45-Zellen unter Standardbedingungen erhielten zunächst keinen Zusatz (Kontrolle) oder 0.9 µM Resveratrol oder der Resveratrolderivate HT 161, HT 163, HT 182, die durch unterschiedliche Blockierung der drei vorhandenen OH-Gruppen gekennzeichnet sind. Dabei waren beim Derivat HT 161 alle drei OH-Gruppen durch TBS (tert-Butyldimethylsilyl) blockiert, beim Derivat HT 163 die beiden OH-Gruppen in den Positionen 3'und 5'blockiert und beim Derivat HT 182 selektiv nur die OH-Gruppe in der Position 4'blockiert.\nDanach erfolgte die Zugabe von 100 mM 3-AT (Katalasehemmstoff) und der angegebenen Konzentrationen von Cu/ZnSOD. Nach 5,5 Stunden erfolgte die Bestimmung der Prozentsätze apoptotischer Zellen in Doppelansätzen.\nDa 3-AT Superoxidanionen-abhängiges interzelluläres Apoptose-auslösendes Signaling reaktiviert, wird der Prozess durch Cu/Zn-SOD blockiert, wobei sich eine typische Glockenkurve ausbildet. Der biochemische Grund dafür wird in Bauer et al., Carcinogenesis 35: 1582-1591, 2014 dargestellt.\nDie Messung der extrazellulären Superoxidanionenkonzentration von Tumorzellen sowie die Bestrahlungstechnik mit Niedrigdosis-Gammastrahlung wird in der Arbeit Temme and Bauer, 2013 beschrieben. Die Hemmung der NOD wird bei Scheit and Bauer, 2015, beschrieben. Viele Versuchsergebnisse wurden in den Figuren dargestellt. […]"}}, "note": "“Also recorded” adds a separate entry of the source."}
{"smiles": "Oc1ccc(C=Cc2cc(O)cc(O)c2)cc1", "note": "[Resveratrol]", "values": [{"measurement": "Synergieeffekt mit Taxol", "setting": "[1]", "result": "Synergieeffekt"}, {"measurement": "Synergieeffekt mit DADS", "setting": "[1]; 3,5 Stunden (Figur 10) or 5,5 Stunden (Figur 15)", "result": "konzentrationsabhängigen beachtlichen Synergieeffekt; also recorded: zur Ausprägung eines Synergieeffektes mit DADS befähigt"}, {"measurement": "stimulierende Wirkung auf die Superoxidanionensynthese", "setting": "[2]", "result": "Rechtsverschiebung der Kurve"}]}
